According to patent US20160030561A1, “Methods of Treating Pancreatic Cancer” (ONCOMED PHARMACEUTICALS, INC., priority 2013, published 2016):
“Also recorded” adds a separate entry of the source. Where a SMILES comes first, the peptide text is derived from it. [ ]: non-standard residue; d: D form. The star is where a group is joined. Nle = CCCC[C@H](N)C(=O)O; Cbz = O=C(OCc1ccccc1)*

Tests used:
intestinal adenomas = intestinal adenomas in Apc−/− (min) mice; cited from earlier work
[1] = system: OMP-Lu40 lung (NOTCH3 low expressing) tumor cells; assay: In vivo xenograft assay, OMP-Lu40 lung tumor; parameters: species or system NOD-SCID mice; details: in combination with taxol; antibody 20 mg/kg weekly, taxol 10 mg/kg weekly; FIG. 1F
Protocol: (§1) Antibodies were dosed weekly at 20 mg/kg. Taxol was dosed at 10 mg/kg weekly.

[2] = system: UM-PE13 breast (NOTCH3 high expressing) tumor cells; assay: In vivo xenograft assay, UM-PE13 breast tumor; parameters: species or system NOD-SCID mice; details: FIG. 1D
Protocol: as §1

[3] = system: UM-T1 breast (NOTCH3 high expressing) tumor cells; assay: In vivo xenograft assay, UM-T1 breast tumor; parameters: species or system NOD-SCID mice; details: FIG. 1E
Protocol: Tumors were allowed to grow 28 days until they had reached an average volume of 120 mm^3. […] Antibodies were dosed weekly at 20 mg/kg. Taxol was dosed at 10 mg/kg weekly.

[4] = system: breast or lung tumors with high NOTCH3 gene expression; assay: In vivo xenograft assay, panel of breast or lung tumors with high NOTCH3 gene expression; parameters: species or system NOD-SCID mice; details: OMP-59R5 in combination with a chemotherapeutic agent (taxol); NOTCH3 cut-off value of 500
Protocol: as §1

[5] = system: OMP-Lu53 lung (NOTCH3 high expressing) tumor cells; assay: In vivo xenograft assay, OMP-Lu53 lung tumor; parameters: species or system NOD-SCID mice; details: in combination with taxol; antibody 40 mg/kg every other week, taxol 10 mg/kg weekly; FIG. 1G
Protocol: Antibodies were dosed every other week at 40 mg/kg. Taxol was dosed at 10 mg/kg weekly.

OMP-PN8 tumor cells = assay: In vivo xenograft assay, OMP-PN8 pancreatic tumor; parameters: species or system NOD-SCID mice
Protocol: (§2) 20,000 OMP-PN8 tumor cells were injected into NOD-SCID mice. Tumors were allowed to grow 22 days until they had reached an average volume of 125 mm^3. […] Antibodies were dosed every other week at 40 mg/kg. Gemcitabine was dosed at 20 mg/kg weekly.
Tumors were allowed to grow 26 days until they had reached an average volume of 110 mm^3. Tumor bearing mice were randomized into 3 groups (n=9 mice per group) and treated with control antibody, gemcitabine, plus ABRAXANE™ (albumin bound paclitaxel), or the combination of OMP-59R5 anti-NOTCH2/3 antibody and gemcitabine plus ABRAXANE™ OMP-59R5 was dosed every other week at 40 mg/kg. Gemcitabine was dosed at 10 mg/kg weekly and ABRAXANE™ at 30 mg/kg weekly. […] The top and bottom graphs show data obtained from the same experiment on different scales.

[6] = system: OMP-PN17 pancreatic tumor; assay: In vivo xenograft assay, OMP-PN17 pancreatic tumor; parameters: species or system NOD-SCID mice; details: FIG. 1B
Protocol: as §2
The ability of anti-NOTCH2/3 OMP-59R5 antibody to inhibit the in vivo growth of OMP-PN17 pancreatic tumor was determined using substantially identical methods.

OMP-PN11 tumor cells = assay: In vivo xenograft assay, OMP-PN11 pancreatic tumor; parameters: species or system NOD-SCID mice; details: FIG. 1C
Protocol: 50,000 OMP-PN11 tumor cells were injected into NOD-SCID mice. Tumors were allowed to grow 21 days until they had reached an average volume of 120 mm^3. […] Antibodies were dosed every other week at 40 mg/kg. Gemcitabine was dosed at 20 mg/kg weekly.

[7] = system: pancreatic tumors with high NOTCH3 gene expression; assay: In vivo xenograft assay, panel of pancreatic tumors with high NOTCH3 gene expression; parameters: species or system NOD-SCID mice; details: treatment with OMP-59R5 and gemcitabine; NOTCH3 cut-off value of 500
Protocol: as §2

[8] = system: melanoma and Kaposi sarcoma; details: cell lines and/or xenografts in mice from melanoma and Kaposi sarcoma; cited from earlier work
[9] = system: tumor cell lines that overexpressed NOTCH3; details: tumor cell lines that overexpressed NOTCH3, not those with minimal NOTCH3 expression; cited from earlier work
T-ALL = T-ALL animal model; cited from earlier work
medulloblastoma = details: cited from earlier work
[10] = system: Ras-transformed fibroblasts; details: cited from earlier work
[11] = as a single agent, 20 mg/kg weekly
[12] = in combination with taxol, antibody 20 mg/kg weekly, taxol 10 mg/kg weekly

Q: With dibenzazepine as the compound, how does the “Epithelial cell proliferation and goblet cell differentiation” value (intestinal adenomas) read?
A: inhibit epithelial cell proliferation and induce goblet cell differentiation

Q: For “OMP-59R5: 59R5 IgG2 anti-NOTCH2/3 antibody, heavy and light chain of SEQ ID NO:30 and SEQ ID NO:33; ATCC PTA-10170”, which OMP-Lu40 tumor growth [1] is on record?
A: strongly inhibited

Q: And the UM-PE13 tumor growth [2, 11]?
A: strongly inhibited

Q: What about the UM-PE13 tumor growth [2, 12] of the same compound?
A: strongly inhibited

Q: And the UM-T1 tumor growth [3, 11]?
A: no effect

Q: And the UM-T1 tumor growth [3, 12]?
A: no effect

Q: What about the “Breast or lung tumors with high NOTCH3 gene expression responsive” value [4] of the same compound?
A: 5 out of 14

Q: What about the OMP-Lu53 tumor growth [5] of the same compound?
A: no effect

Q: And the OMP-PN8 tumor growth (OMP-PN8 tumor cells; as a single agent, 40 mg/kg every other week, FIG. 1A)?
A: strongly inhibited

Q: And the “Activity on OMP-PN8 tumor growth compared with gemcitabine plus ABRAXANE alone” value (OMP-PN8 tumor cells; in combination with gemcitabine plus ABRAXANE, FIG. 9)?
A: more active

Q: What about the OMP-PN8 tumor growth (OMP-PN8 tumor cells; in combination with gemcitabine plus ABRAXANE, OMP-59R5 40 mg/kg every other week, gemcitabine 10 mg/kg weekly, ABRAXANE 30 mg/kg weekly, FIG. 9) of the same compound?
A: strongly inhibited; also recorded: active

Q: And the OMP-PN8 tumor growth (OMP-PN8 tumor cells; in combination with gemcitabine, antibody 40 mg/kg every other week, gemcitabine 20 mg/kg weekly, FIG. 1A)?
A: strongly inhibited

Q: And the OMP-PN17 tumor growth ([6]; as a single agent)?
A: strongly inhibited

Q: What about the OMP-PN17 tumor growth ([6]; in combination with gemcitabine) of the same compound?
A: strongly inhibited

Q: What about the OMP-PN11 tumor growth (OMP-PN11 tumor cells; as a single agent, 40 mg/kg every other week) of the same compound?
A: no effect

Q: What about the OMP-PN11 tumor growth (OMP-PN11 tumor cells; in combination with gemcitabine, antibody 40 mg/kg every other week, gemcitabine 20 mg/kg weekly) of the same compound?
A: no effect

Q: Which “Pancreatic tumors with high NOTCH3 gene expression responsive in vivo” value [7] does the source give for “OMP-59R5 + gemcitabine: combination treatment with OMP-59R5 anti-NOTCH2/3 antibody and gemcitabine” here?
A: 9 out of the 10

Q: Which results are given for `CCCC[C@@H](C=O)NC(=O)[C@H](CC(C)C)NC(=O)[C@H](CC(C)C)NC(=O)OCc1ccccc1` [z-Leu-leu-Nle-CHO] (Cbz-Leu-Leu-[Nle]-aldehyde)?
A: Tumor growth [8]: suppress tumor growth; Cell proliferation and apoptosis [9]: suppression of cell proliferation and induction of apoptosis

Q: Which “Cell cycle arrest and apoptosis” value (T-ALL) does the source give for `C[C@H](NC(=O)Cc1cc(F)cc(F)c1)C(=O)N[C@H](C(=O)OC(C)(C)C)c1ccccc1` [DAPT, N-[N-(3,5-difluorophenacetyl)-L-alanyl]-S-phenylglycine t-butyl ester] here?
A: induced G0-G1 cell cycle arrest and apoptosis

Q: And the Medulloblastoma growth (medulloblastoma)?
A: marked reduction

Q: With `CCC(C)C(NC(=O)OCc1ccccc1)C(=O)NC(C=O)CC(C)C` (stereo not drawn) [IL-X, cbz-IL-CHO] (Cbz-Ile-Leu-aldehyde; configuration not given here) as the compound, how does the Antineoplastic activity [10] read?
A: NOTCH1-dependent antineoplastic activity
